PMC10487658, “Identification and Characterization of RK22, a Novel Antimicrobial Peptide from Hirudinaria manillensis against Methicillin Resistant Staphylococcus aureus” (International Journal of Molecular Sciences, 2023)
In brackets after ≈: the same amount, converted by molar mass. Like-named read-outs stand apart in the source and are kept apart here. Residues, ends and D or L forms follow the SMILES beside them. No end group written: not given here.

How the values were obtained:
P. aeruginosa, ATCC9027 = assay type: cell-based, Pseudomonas aeruginosa; details: RPMI 1640, 37 °C, 12–16 h, absorbance at 600 nm
E. coli, ATCC25922 = assay type: cell-based, Escherichia coli; details: RPMI 1640, 37 °C, 12–16 h, absorbance at 600 nm
[1] = system: MRSA-Z (clinically isolated methicillin-resistant S. aureus); assay: microbe, parasite or virus in culture; assay type: cell-based, Staphylococcus aureus; details: Staphylococcus aureus, MRSA
Description: (§1) The bacterial strains used in this study included Pseudomonas aeruginosa (P. aeruginosa, ATCC27853), Acinetobacter baumannii (A. baumannii, ATCC19606), Escherichia coli (E. coli, ATCC8739), and S. aureus (ATCC6538, two clinically isolated strains (SA220823 and SA15772)), and three clinically isolated methicillin-resistant strains (MRSA-Z, MRSA11, and MRSA22). All strains were grown in Luria-Bertani (LB) broth.
(§2) The minimum inhibitory concentration (MIC) for all strains was determined using the […] assay based on a previous study with minor modifications. Initially, strains in the exponential phase were diluted to a concentration of 2 × 10^5 CFU/mL using RPMI 1640 medium (Corning, New York, NY, USA). Next, 100 μL of the bacterial suspension was mixed with 100 μL of the sample solution (final concentration 0–200 μg/mL in RPMI 1640 medium) in 96-well plates. The plates were then incubated at 37 °C for 12–16 h. After incubation, the absorbance at 600 nm was measured, and the MIC was determined as the lowest concentration of the test sample in which no bacterial growth was detected in the well.

[2] = system: MRSA11 (clinically isolated methicillin-resistant S. aureus); assay: microbe, parasite or virus in culture; assay type: cell-based, Staphylococcus aureus; details: Staphylococcus aureus
Description: as §1, §2

[3] = system: MRSA22 (clinically isolated methicillin-resistant S. aureus); assay: microbe, parasite or virus in culture; assay type: cell-based, Staphylococcus aureus; details: Staphylococcus aureus
Description: as §1, §2

S. aureus (ATCC6538) = assay: microbe, parasite or virus in culture; assay type: cell-based, Staphylococcus aureus
Description: as §1, §2

[4] = system: SA15772 (clinically isolated S. aureus); assay: microbe, parasite or virus in culture; assay type: cell-based, Staphylococcus aureus; details: Staphylococcus aureus
Description: as §1, §2

[5] = system: SA220823 (clinically isolated S. aureus); assay: microbe, parasite or virus in culture; assay type: cell-based, Staphylococcus aureus; details: Staphylococcus aureus
Description: as §1, §2

MRSA-Z [6] = assay: Bacterial killing kinetic assay; assay type: cell-based, Staphylococcus aureus; details: 10 × MIC, 6 h, RPMI 1640, 37 °C, CFU count, 3 individual experiments
Description: (§3) The bactericidal killing kinetic assay was performed according to a previous study with minor modifications. Firstly, S. aureus ATCC6538 or methicillin-resistant S. aureus MRSA-Z was diluted to 2 × 10^5 CFU/mL using RPMI 1640 medium. Equal volumes of either RK22 (final concentration 1, 5, 10 × MIC) or vancomycin (Macklin, Shanghai, China) (final concentration 1, 5, 10 × MIC) solutions were added to the bacterial suspension. The mixtures were then incubated at 37 °C for different times (0, 15, 30, 60, 180, and 360 min). At each time point, the bacterial solution was inoculated on LB agar culture medium, and colony forming units (CFUs) were counted after 24 h.

S. aureus ATCC6538 [7] = assay: Bacterial killing kinetic assay; assay type: cell-based, Staphylococcus aureus; details: RPMI 1640, 37 °C, CFU count, 3 individual experiments
Description: as §3

MRSA-Z [8] = assay: S. aureus-induced bacteremia model; assay type: in vivo, mouse; details: RK22 8 mg/kg, vancomycin 4 mg/kg ip 1 h after infection, 4 h after administration
Description: (§4) S. aureus ATCC6538 or methicillin-resistant S. aureus MRSA-Z were diluted to a concentration of 1 × 10^9 CFU/mL with normal saline. Male C57BL/6 mice (6–8 weeks of age) were randomly divided into seven groups of 10–12 mice per group. S. aureus ATCC6538 (100 μL) or methicillin-resistant S. aureus MRSA-Z (200 μL) were injected intravenously. At the end of 1 h, mice received an intraperitoneal injection of normal saline, vancomycin (dissolved in saline with the concentration of 2 and 4 mg/kg), or RK22 (dissolved in saline with the concentration of 2, 4, and 8 mg/kg). At 4 h post-administration, the mice were sacrificed, and blood and lung samples were collected. Lungs were then weighed and placed in 1 mL of PBS and homogenized on ice with a tissue grinder. Homogenates and clarified blood were plated in LB agar culture medium and CFUs were counted after 24 h. For histopathological analysis, sections of lung were fixed with 4% paraformaldehyde, embedded in paraffin wax, and stained with H&E.

S. aureus ATCC6538 [9] = assay: S. aureus-induced bacteremia model; assay type: in vivo, mouse; details: RK22 8 mg/kg, vancomycin 4 mg/kg ip 1 h after infection, 4 h after administration
Description: as §4

FXa = target: T1, FXa (Homo sapiens, UniProt P00742); assay: Enzymatic activity assay of coagulation factors, chromogenic substrate; assay type: biochemical; details: 40, 200, 1000 nM, 10 min pre-incubation, substrate S-2222, 405 nm
T1 construct: purchased Enzymeresearch, Lake Oswego, OR, USA
Description: (§5) The enzymatic activity of RK22 and LL-37 against coagulation factors was measured using the chromogenic substrate method. In brief, 5 μL of FXa (Enzymeresearch, Lake Oswego, OR, USA) (final concentration 3 μg/mL) or thrombin (Enzymeresearch, Lake Oswego, OR, USA) (final concentration 0.1056 μg/mL) and 5 μL of sample (final concentration 40, 200, and 1000 nM) were incubated for 10 min in 96-well plates, respectively. Following incubation, thrombin substrate (S-2238, Chromogenix, Milano, Italy, 45 μg/mL) or FXa substrate (S-2222, Chromogenix, Milano, Italy, 90 μg/mL) dissolved with 90 μL of enzyme dynamic buffer (100 mM NaCl, 50 mM Tris, 5 mM CaCl2, pH 8.0) were added and absorbance was measured at 405 nm every 1 min for 90 min.

thrombin = target: T2, thrombin (Homo sapiens, UniProt P00734); assay: as above; assay type: biochemical; details: 40, 200, 1000 nM, 10 min pre-incubation, substrate S-2238, 405 nm
T2 construct: purchased Enzymeresearch, Lake Oswego, OR, USA
Description: as §5

washed platelets = assay: Platelet activity assay, flow cytometry; assay type: cell-based; details: mouse washed platelets, 20, 10, 5, 2.5 μg/mL, 10 min, P-selectin
Description: Platelets were isolated from the mice as described in a previous study with minor modifications. The effect of RK22 and LL-37 on platelet activity was detected by flow cytometry. Mouse blood was mixed with Tyrode’s buffer A (137 mM NaCl, 2 mM KCl, 0.3 mM NaH2PO4, 12 mM NaHCO3, 5.5 mM glucose, 0.35% BSA, 1 mM MgCl2, and 0.2 mM EDTA, pH 6.5) and centrifuged (150× g, 10 min, room temperature) to obtain platelet-rich plasma (PRP), which was then pelleted (400× g, 5 min, room temperature), washed with Tyrode’s buffer A, and finally resuspended in Tyrode’s buffer B (137 mM NaCl, 2 mM KCl, 0.3 mM NaH2PO4, 12 mM NaHCO3, 5.5 mM glucose, 0.35% BSA and 2 mM CaCl2, pH 7.4). Antibodies against P-selectin (Biolegend, San Diego, CA, USA) were added to the platelets, followed by incubation for 10 min at room temperature. Samples (20, 10, 5, and 2.5 μg/mL) or normal saline were added, respectively, and analyzed by flow cytometry (BD, LSRFortessa^TM, Franklin Lakes, NJ, USA).

[10] = P. aeruginosa ATCC9027 in Table 3

T1 sequence (P00742 235-488 limits assumed): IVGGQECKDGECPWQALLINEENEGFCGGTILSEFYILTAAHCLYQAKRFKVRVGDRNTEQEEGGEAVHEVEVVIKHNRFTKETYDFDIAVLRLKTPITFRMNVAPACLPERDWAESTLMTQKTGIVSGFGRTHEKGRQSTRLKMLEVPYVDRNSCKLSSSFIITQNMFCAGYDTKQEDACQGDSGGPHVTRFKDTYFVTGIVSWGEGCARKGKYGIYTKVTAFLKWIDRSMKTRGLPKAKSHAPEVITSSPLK
T1 sequence (P00742 41-179 partner limits assumed): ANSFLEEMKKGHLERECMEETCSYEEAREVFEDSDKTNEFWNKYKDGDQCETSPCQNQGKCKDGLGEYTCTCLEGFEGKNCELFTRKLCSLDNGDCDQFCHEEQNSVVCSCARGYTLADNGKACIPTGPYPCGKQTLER

CC(C)C[C@H](NC(=O)[C@@H](NC(=O)[C@@H](NC(=O)[C@H](CS)NC(=O)[C@@H](NC(=O)[C@H](CCCCN)NC(=O)[C@H](CCCCN)NC(=O)[C@H](CCCCN)NC(=O)[C@H](CCCCN)NC(=O)[C@@H]1CCCN1C(=O)[C@H](CCCCN)NC(=O)[C@@H]1CCCN1C(=O)[C@H](CCCCN)NC(=O)[C@@H]1CCCN1C(=O)[C@H](CS)NC(=O)[C@H](CC(C)C)NC(=O)[C@@H](NC(=O)[C@H](C)NC(=O)[C@@H](N)CCCNC(=N)N)C(C)C)C(C)C)C(C)C)C(C)C)C(=O)O [RA19] (H-RAVLCPKPKPKKKKVCVVL-OH; N-terminus and C-terminus assumed)
MIC (P. aeruginosa, ATCC9027; P. aeruginosa ATCC27853 as printed in the text): exceeding 100 μg/mL | MIC (E. coli, ATCC25922; E. coli ATCC8739 as printed in the text): exceeding 100 μg/mL

CN[C@H](CC(C)C)C(=O)N[C@H]1C(=O)N[C@@H](CC(N)=O)C(=O)N[C@H]2C(=O)N[C@H]3C(=O)N[C@H](C(=O)N[C@H](C(=O)O)c4cc(O)cc(O)c4-c4cc3ccc4O)[C@H](O)c3ccc(c(Cl)c3)Oc3cc2cc(c3O[C@@H]2O[C@H](CO)[C@@H](O)[C@H](O)[C@H]2O[C@H]2C[C@](C)(N)[C@H](O)[C@H](C)O2)Oc2ccc(cc2Cl)[C@H]1O [Vancomycin, vancomycin, reference compound]
MIC [1]: 1.56 µg/mL (≈ 1.08 µM) | MIC [2]: 1.56 µg/mL (≈ 1.08 µM) | MIC [3]: 1.56 µg/mL (≈ 1.08 µM) | MIC (S. aureus (ATCC6538); Staphylococcus aureus): 1.56 µg/mL (≈ 1.08 µM) | MIC [4]: 1.56 µg/mL (≈ 1.08 µM) | MIC [5]: 1.56 µg/mL (≈ 1.08 µM) | MRSA-Z inhibited / eradicated (MRSA-Z [6]): about 80% | time to a kill rate of more than 90% (S. aureus ATCC6538 [7]; S. aureus ATCC6538, 5 × MIC): 6 h | time to a kill rate of more than 90% (S. aureus ATCC6538 [7]; S. aureus ATCC6538, 10 × MIC): 6 h | infection-induced tissue injury in the lung (H&E) (MRSA-Z [8]): significantly alleviated | infection-induced hemorrhage and inflammatory cell infiltration in the lung (H&E) (S. aureus ATCC6538 [9]): significantly alleviated

KSKSKKPSKSKPKKKKTSVVQQELQDVISFDFGC [KS34]
MIC (P. aeruginosa, ATCC9027; [10]): >100 µg/mL | MIC (E. coli, ATCC25922; E. coli ATCC25922): >100 µg/mL

KSSNTKAKKKKKNN [KS14]
MIC (S. aureus (ATCC6538)): 50 µg/mL | MIC (P. aeruginosa, ATCC9027; [10]): >100 µg/mL | MIC (E. coli, ATCC25922; E. coli ATCC25922): >100 µg/mL

KTRRRNRKHKKTINTETVQI [KT20]
MIC (S. aureus (ATCC6538)): 50 µg/mL | MIC (P. aeruginosa, ATCC9027; [10]): >100 µg/mL | MIC (E. coli, ATCC25922; E. coli ATCC25922): >100 µg/mL

LL-37
effect on enzymatic activity of FXa (FXa): significant potentiation activity | effect on enzymatic activity of thrombin (thrombin): significant potentiation activity | platelet activation (washed platelets): significant and dose-dependent effects on platelet activation

VFLICFSLISPASFENVRAKW [VF21]
MIC (P. aeruginosa, ATCC9027; [10]): >100 µg/mL | MIC (E. coli, ATCC25922; E. coli ATCC25922): >100 µg/mL
